Measurements reported in a melting point compilation (Tetko et al.; mined from patent text by program, amines drawn as free bases though some values may be those of a salt).

| SMILES | melting point |
| --- | --- |
| O=C1CCC(=O)N(c2ccc(N3CCN(C4(c5ccc(-c6ccccc6)cc5)C(=O)NC(=O)NC4=O)CC3)cc2)C1 | 300 to 301 °C |
| O=C(c1ccc(Oc2ccc(C(F)(F)F)cc2Cl)cc1)C(Cl)Cl | 41 to 42 °C |
| CCOCc1nc2c(N)nc3ccccc3c2n1CCOCCNC(=O)NC1CCCCC1 | 161 to 164 °C |
| N#CC(C#N)(COc1ccccc1Cl)NC(=O)c1ccc(OC(F)(F)F)cc1 | 154 to 155 °C |
| CCCc1nc2c(N)nc3cc(-c4ccccc4)ccc3c2n1NC(C)C | 217 to 220 °C |
| O=C(O)CC(O)(CC(=O)O)C(F)(F)F | 102 to 105 °C |
| CSSc1ccc([N+](=O)[O-])cc1 | 42.9 to 44.3 °C |
| COC(=O)Cn1c(C(=O)O)cc2ccccc21 | 190 °C |
| O=C(Cn1c(-c2ccc(Br)cc2)nc2cccnc21)Nc1ccccc1 | 242 to 244 °C |
| CCOC(=O)c1cc([N+](=O)[O-])c(Nc2cccc(C)n2)c(S(N)(=O)=O)c1 | 203 to 204 °C |
| O=C(OCc1cc(OCCCO)cc(OCCCO)c1)c1ccccc1 | 78 to 82 °C |
| O=C(CCCN1CC=C(c2ccccc2)CC1)c1cccnc1 | 64 to 66 °C |
| CCCCCNC(=O)CCCCC | 37 °C |
| CCOC(=O)Cn1c(C(=O)NCc2nncn2-c2sc(CC)cc2C(=O)c2ccccc2Cl)cc2ccccc21 | 158 to 160 °C |
| O=C1c2cc3ccccc3cc2C(=O)c2c(Oc3ccccc3)cccc21 | 195 to 200 °C |
| C[C@H]1[C@H](NSc2ccccc2[N+](=O)[O-])C(=O)N1OCc1ccccc1 | 97 to 100 °C |
| CSc1cccc(-c2ccccc2[N+](=O)[O-])c1 | 42 to 43 °C |
| CCOC(=O)c1cccc2c1Nc1ccc(C(=O)c3ccccc3)cc1N2C(=O)OC | 112 to 115 °C |
| Cc1ccc(C)c(NC(=O)C(C)c2ccc(N)c([N+](=O)[O-])c2)c1 (centres undefined) | 187 to 188 °C |
| CC1=NC(SCc2ccccc2)=CC2=CN(C)NN21 | 108 to 111 °C |
| O=C(NCCO)c1cccc(-c2ncc3ccn(Cc4ccc(Cl)cc4Cl)c3n2)c1 | 194 to 195 °C |
| CCOCc1nc2c(N)nc3ccccc3c2n1CCCCS(=O)(=O)NC1CCCCC1 | 197 to 198 °C |
| CCOC(=O)c1cn(-c2nc3ccccc3s2)cn1 | 131 to 133 °C |
| O=C(NCCCN1CCCCC1)c1ccc(-c2ccc3nnn(Cc4ccc5ncccc5c4)c3n2)cc1F | 135 to 137 °C |
| CC1(C2CCCC2)Cc2cc(OCCCC(=O)O)c(Cl)c(Cl)c2C1=O (centres undefined) | 154 °C |

| SMILES | melting point |
| --- | --- |
| Nc1ccc(NC=C(S(=O)(=O)c2ccccc2)S(=O)(=O)c2ccccc2)nc1 | 172 to 174 °C |
| CCCc1cc(-c2noc3cc(O)ccc23)c(CCC)cc1O | 162 to 163 °C |
| NCCNc1nc(N)nc(-c2cc(Cl)ccc2Cl)n1 | 152 to 153 °C |
| O=C(NS(=O)(=O)c1ccccc1)c1cccc2nnsc12 | 173 to 175 °C |
| CC(C)(C)OC(=O)N1CCCC1COC(=O)N1CCN(c2cc(N3CCCC3)nc(N3CCCC3)n2)CC1 (single isomer, unassigned; (-)) | 147 °C |
| O=C(O)c1cc(F)c(N2CCCC2)nc1NC1CC1 | 64 to 66 °C |
| CC(=O)Nc1ccc(Nc2c(NCc3ccco3)cc(C(=O)O)cc2S(=O)(=O)Nc2ccccc2NC(C)=O)cc1 | 258 °C |
| N=c1nc(N)c2ncn(Cc3ccccc3)c2c(N)n1 | 202 to 204 °C |
| Nc1cc(F)c(Cl)c(F)c1N | 77 to 78 °C |
| CCc1c(C)c(=O)oc2cc(-c3ccc(C(C)C)cc3)cc(OC)c12 | 83 °C |
| CCCCCCCCCC(=O)Oc1ccc2cc(C(=N)N)ccc2c1 | 165 to 168 °C |
| Cc1sc2c(Cl)c(Cl)c(O)cc2c1C | 143 to 144 °C |
| O=C(Nc1nc2ccc(OCc3c(Cl)cccc3Cl)cc2s1)C1CC1 | 178 °C |
| CON(C)C(=O)Nc1c(C(=O)c2occc2CO)[nH]c2cc(Cl)ccc12 | 221 to 222 °C |
| CC1CC2(C)C(O)CCC2C2C(C)CC3=CC(=O)CCC3C12 (centres undefined) | 155 to 157 °C |
| CC1(C(=O)NCc2cccs2)CCCCC1 | 72 to 73 °C |
| CCN(CC)CCNC(=O)c1cccc2c(=O)c3cccc(I)c3[nH]c12 | 148 to 150 °C |
| CCCCCCCC(=O)Oc1nc2c(N)ncnc2n1Cc1ccccc1 | 248 to 250 °C |
| COC(=O)c1ccc2cc(OCC(=O)O)ccc2c1 | > 285 °C |
| CCC(C)(CC)c1nnc(N)s1 | 138 to 140 °C |
| CN(C)CCNC(=O)c1cn(C)c(=O)c2cc3ccccc3nc12 | 192 to 194 °C |
| Cc1cccc(-c2nc(N)sc2-c2ccnc(NCc3ccccc3)c2)c1 | 178 to 179 °C |
| CC[C@H](C)[C@H](NC(=O)O[C@@H](CC(C)C)C(=O)O)C(N)=O | 170 to 175 °C |
| COCCOc1cc(/C=C/C(=O)NS(=O)(=O)CCC(C)C)n(Cc2ccc(Cl)cc2Cl)n1 | 110 to 114 °C |
| O=C(O)c1cc2cc(OCCNC[C@@H](O)c3csc(C(F)(F)F)n3)ccc2o1 | 155 to 163 °C |

| SMILES | melting point |
| --- | --- |
| N#Cc1cccc2c1CCC2O (centres undefined) | 98 °C |
| COc1cc(Cl)c(N)cc1C(=O)N[C@H]1CCNC[C@H]1OC (relative stereo) | 192 °C |
| COc1ccc(C=O)cc1C(=O)NCc1ccc(C(F)(F)F)cc1 | 116 to 117 °C |
| CCn1c(=O)c(C)cc2cnc(S(C)=O)nc21 (centres undefined) | 148 to 150 °C |
| CCCCc1oc2ccc(-c3nnn[nH]3)cc2c1C(=O)c1ccc(OCCCN(CCCC)CCCC)cc1 | 145 to 147 °C |
| CC1(c2onc(-c3ccc(O)cc3)c2-c2ccccc2)CC1 | 212 to 214 °C |
| NC(=O)c1c(I)c(C(=O)N(CC(O)CO)CC(O)CO)c(I)c(N2CCCCC2=O)c1I (centres undefined) | 214 to 219 °C |
| CCC(C)(C)c1ccc(OCCCNC(=O)c2cc(OS(=O)(=O)CCCOc3ccc(N)cc3)c3ccccc3c2O)c(C(C)(C)CC)c1 | 125 to 126 °C |
| CC(C)(C)c1cc(CCc2ccccc2NC(=O)NC2CCN(Cc3ccc(Cl)cc3)CC2)cc(C(C)(C)C)c1O | 184 to 185 °C |
| O=C(Nc1cccc(F)n1)Nc1cccc2c1C1CCCCN1C2=O (centres undefined) | 254 °C |
| O=C(O)CCCNC(=O)S[C@@H]1CC(=O)N(Cc2ccc(Oc3ccc(F)cc3)nc2)C1 | 131 to 132 °C |
| O=C(O)Cc1c(Cl)nc(-c2ccccc2)n1Cc1ccc(O)cc1 | 196 to 199 °C |
| O=C(O)CCC(=NO)c1ccc(-c2ccc(C(F)(F)F)cc2)cc1 | 134 to 136 °C |
| COc1ccc(-c2ccc3nnn(Cc4ccc5ncccc5c4)c3n2)cc1F | 187 to 190 °C |
| CCOC(=O)C(C)Oc1cc(C(=O)O)c(O)c2ccccc12 (centres undefined) | 75 °C |
| CCN=C(NCc1ccccc1)NN=Cc1c(Cl)cccc1Cl | 101 to 103 °C |
| C#CCOc1c(OC)cccc1-c1nc2ncccc2[nH]1 | 238 °C |
| CC(C)C(=O)Oc1ccc2c(c1)-c1ncc(C(=O)O)c(=O)n1CC2 | 183 to 185 °C |
| N#Cc1ccccc1N1CCC2(CC1)OCCO2 | 134 to 135 °C |
| COc1ccc(S(=O)(=O)C2(CCCC#Cc3ccc(Cl)cc3)CC(=O)NC2=O)cc1 (centres undefined) | 160 to 162 °C |
| Cn1c(C(=O)NCCCn2ccnc2)cc2ccccc21 | 125 to 129 °C |
| Fc1cccc(Cl)c1COc1cccnc1NC(=S)Nc1ccccc1 | 143 to 145 °C |
| COC(=O)CCc1cc2cc(C(F)(F)F)ccc2n1S(=O)(=O)c1ccccc1 | 81 to 83 °C |
| CCCCCCCCC1C=CC(/C=C/c2ccc(C(=O)O)o2)=C2N=C3CCCC(C)(C)C3=C21 (centres undefined) | 115 to 117 °C |
| O=Cc1ccc(-c2nnc(-c3ccccc3[N+](=O)[O-])o2)cc1 | 189 to 190 °C |

| SMILES | melting point |
| --- | --- |
| CC1=CC2(C=C3CCC4C5CCC(=O)C5(C)CCC4C13C)OCCO2 (centres undefined) | 159 °C |
| CCOc1cc(-c2cc(C(F)(F)F)n3ncc(C(=O)Nc4nc(C)c(S(=O)(=O)NC(C)(CO)CO)s4)c3n2)ccc1C(F)(F)F | 220 °C |
| CC(C)(C(=O)O)c1cn2nc(CCCN3CCC(OC(c4ccccc4)c4ccccc4)CC3)ccc2n1 | 195 to 205 °C |
| Cc1cc(F)ccc1C1=C(c2ccc(S(C)(=O)=O)cc2)CCC1 | 112 to 114 °C |
| COc1cc2ncnc(N3CCN(C(=O)NCCc4ccc(Cl)cc4)CC3)c2cc1OC | 177 to 178 °C |
| Cc1ccc(C)c(OCCC(N)C(C)(C)C(=O)O)c1 (centres undefined) | 86.1 to 86.9 °C |
| CCOc1cc(Cc2cnc(N)nc2N)cc(OCC)c1N | 192 to 194 °C |
| NC(=NCCCc1c[nH]cn1)N(CCN(Cc1ccc(Cl)cc1)c1ccccn1)C(=O)c1ccccc1 | 166 to 167 °C |
| CC(=O)NC[C@H]1CN(c2ccc(-n3ccnn3)c(F)c2)C(=O)O1 | 193 to 194 °C |
| CC(C)c1ccc2nc3c(C(=O)NCCCCc4cccnc4)cccn3c(=O)c2c1 | 129 to 130 °C |
| Cc1c(OCc2ccc([Si](C)(C)C)cc2)cnn(C(C)(C)C)c1=O | 93.5 to 95.5 °C |
| Cc1c(OCCCCCCC(=O)N(C)c2ccccc2)ccc([N+](=O)[O-])c1C=O | 72 to 73 °C |
| C=CCNc1nc(=O)c2cccnc2n1Cc1ccc(F)cc1 | 190 to 194 °C |
| O=S1(=O)C=Cc2cc(Br)ccc2O1 | 140 to 142 °C |
| N=C(N)c1ccc(C(=O)N[C@@H](CO)Cc2ccc(OCC(=O)O)cc2)cc1 | 238 to 240 °C |
| O=C(CCl)NCc1ccc(-c2cc3c(Nc4ccc(F)c(Cl)c4)ncnc3[nH]2)cc1 | 320 to 325 °C |
| COc1cn(-c2cccc3cccnc23)nc(-c2ccnn2-c2ccccc2)c1=O | 189 to 192 °C |
| O=C(O)CC(CC(=O)O)C(F)(F)F | 100 °C |
| COc1ccc(C(=O)c2cccc([N+](=O)[O-])c2)cc1 | 88 to 89 °C |
| Nc1ccc(Br)cc1C(O)c1ccccn1 (centres undefined) | 104 to 105 °C |
| O=C(Nc1c(OCc2ccccc2)cc(Br)cc1[N+](=O)[O-])C1CC1 | 191 °C |
| COC(=O)C(OC(C(=O)OC)C(=O)OC)C(=O)OC | 60 to 61 °C |
| O=S1(=O)c2cccc3cccc(c23)N1CCCN1CCN(c2cccc(O)c2)CC1 | 175 °C |
| NC(=O)c1cn([C@@H](CO)CCn2ccc3ccccc32)cn1 | 127 to 130 °C |
